# Test results taken from patent US20080103158A1, “METHODS FOR TREATING DELAYING THE PROGRESSION OF ALZHEIMER'S DISEASE WITH HETEROCYCLIC COMPOUNDS” (ZENYAKU KOGYO KABUSHIKI KAISHA, priority 2006, published 2008).
# System: amyloid β deposition in the hippocampus
# Experiment: Amyloid β deposition inhibitory activity: amyloid β immunohistochemistry of the hippocampus in senescene accelerated mice (SAMP8)
# Assay type: in vivo
# Conditions: hippocampus immunohistochemistry
# Description: Senescene accelerated mice (SAMP8) (male, 8 months old at the beginning of the study) were used for experiment. Approximately 0.1 mg/kg/day of Compound 1 was given in drinking water. Eight weeks after the dosing, the mouse brain was removed, Methacarn-fixed (methanol:chloroform:acetic acid=6:3:1), and paraffin-embedded. Then, sections of 8 μm in thickness were prepared using a microtome.
# The sections were immunostained with streptavidin-biotin using a VECTASTATIN ABC kit. After one hour of incubation in 10% normal goat serum, the anti-amyloid β (Aβ) antibody was diluted with PBS to ten fold and incubated at 4° C. overnight. The following day, PBS rinsing, 1.5 hours of incubation with biotinylated anti-rabbit secondary antibody, PBS rinsing, and 1.5 hours of incubation with peroxidase-labeled streptavidin were conducted. The immunoreaction was visualized with DAB and specimens were prepared.
# Immunoreactive Aβ-like granules in the hippocampus were counted under the microscope. The Aβ-like immunoreactive granule was observed as brown deposits in the hippocampus. The count was made for one section per individual.
row,SMILES,amyloid β deposition (overall conclusion)
1,"O=C1N=C2C=CC=CN2C12Cc1ccccc1C2 [Compound 1, spiro[imidazo[1,2-a]pyridin-2(3H)-one-3,2′-indan]]",inhibits amyloid β deposition

# Same assay, conditions: hippocampus, one section per individual, oral 0.002, 0.01 and 0.1 mg/kg in drinking water for 2 months, FIG. 2
row,SMILES,number of amyloid β-immunoreactive granules
1,"O=C1N=C2C=CC=CN2C12Cc1ccccc1C2 [Compound 1, spiro[imidazo[1,2-a]pyridin-2(3H)-one-3,2′-indan]]",significantly (*) decreased

# Same assay, conditions: male, 8 months old, Compound 1 in drinking water at oral dosage of 0.002, 0.01 and 0.1 mg/kg/day for 2 months, vs tap water
row,SMILES,amyloid β-like immunoreactivity in the hippocampus
1,"O=C1N=C2C=CC=CN2C12Cc1ccccc1C2 [Compound 1, spiro[imidazo[1,2-a]pyridin-2(3H)-one-3,2′-indan]]",reduced

# System: not listed separately
# Experiment: preclinical study (safety)
# Conditions: not given
row,SMILES,safety in the preclinical study
1,"O=C1N=C2C=CC=CN2C12Cc1ccccc1C2 [Compound 1, spiro[imidazo[1,2-a]pyridin-2(3H)-one-3,2′-indan]]",highly safe

# System: not given
# Experiment: not given
# Conditions: not given
row,SMILES,melting point
1,"C=CCOC1=CC=CN2C1=NC(=O)C2(Cc1ccccc1)Cc1ccccc1 [Compound 6, 8-allyloxy-3,3-dibenzylimidazo[1,2-a]pyridin-2(3H)-one]",214 to 215 °C
2,"O=C1N=C2C=CC=CN2C1(Cc1ccc(O)cc1)Cc1ccc(O)cc1 [Compound 23, 3,3-bis(4-hydroxybenzyl)imidazo[1,2-a]pyridin-2(3H)-one]",276.5 to 277.5 °C
3,"N#Cc1cccc2c1CC1(C2)C(=O)N=C2C=CC=CN21 (centres unmarked) [Compound 59, spiro[imidazo[1,2-a]pyridin-2(3H)-one-3,2′-(4′-cyanoindan)]]",247.7 °C (dec.)
4,"O=C1N=C2SC=CN2C1(Cc1cccs1)Cc1cccs1 [Compound 49, 5,5-bis(2-thienylmethyl)imidazo[2,1-b]thiazol-6(5H)-one]",286 °C (dec.)
5,"CC1=CC2=NC(=O)C(Cc3ccccc3)(Cc3ccccc3)N2C(C)=C1 [Compound 10, 3,3-dibenzyl-5,7-dimethylimidazo[1,2-a]pyridin-2(3H)-one]",237 to 238 °C
6,"O=C1N=C2C=CC=CN2C12Cc1ccc3ccccc3c1C2 (centres unmarked) [Compound 65, spiro[imidazo[1,2-a]pyridin-2(3H)-one-3,2′-benzo[e]indan]]",256 °C (dec.)
7,"O=C1N=C2C(OCc3ccccc3)=CC=CN2C12CC=CC2 [Compound 70, spiro[8-benzyloxyimidazo[1,2-a]pyridin-2(3H)-one-3,4′-(1′-cyclopentene)]]",178.5 to 180.5 °C
8,"O=C1N=C2N=CC=CN2C1(Cc1ccccc1)Cc1ccccc1 [Compound 45, 3,3-dibenzylimidazo[1,2-a]pyrimidin-2(3H)-one]",> 300 °C
9,"O=C1N=C2C(O)=CC=CN2C1(Cc1ccccc1)Cc1ccccc1 [Compound 36, 3,3-dibenzyl-8-hydroxyimidazo[1,2-a]pyridin-2(3H)-one]",283 to 285 °C
10,"O=C1N=C2CCCCN2C12Cc1cc3ccccc3cc1C2 [Compound 76, spiro[5,6,7,8-tetrahydroimidazo[1,2-a]pyridin-2(3H)-one-3,2′-benzo[f]indan]]",252.5 °C (dec.)
11,"C=CCC1(CC=C)C(=O)N=C2C(OCc3ccccc3)=CC=CN21 [Compound 25, 3,3-diallyl-8-benzyloxyimidazo[1,2-a]pyridin-2(3H)-one]",160 to 162 °C
12,"O=C1N=C2C=CC=CN2C1(Cc1ccc(F)cc1)Cc1ccc(F)cc1 [Compound 17, 3,3-bis(4-fluorobenzyl)imidazo[1,2-a]pyridin-2(3H)-one]",290 to 292 °C
13,"O=C1N=C2C=CC=CN2C1(Cc1ccc(F)cc1F)Cc1ccc(F)cc1F [Compound 28, 3,3-bis(2,4-difluorobenzyl)imidazo[1,2-a]pyridin-2(3H)-one]",269 to 271 °C
14,"C#CCC1(CC#C)C(=O)N=C2C=CC=CN21 [Compound 35, 3,3-di(2-propinyl)imidazo[1,2-a]pyridin-2(3H)-one]",172 to 175 °C
15,"O=C1N=C2C(Cl)=CC(C(F)(F)F)=CN2C1(Cc1ccccc1)Cc1ccccc1 [Compound 14, 3,3-dibenzyl-8-chloro-6-trifluoromethylimidazo[1,2-a]pyridin-2(3H)-one]",234 to 236 °C
16,"O=C1N=C2C(OC3CCCC3)=CC=CN2C1(Cc1ccccc1)Cc1ccccc1 [Compound 12, 3,3-dibenzyl-8-cyclopentyloxyimidazo[1,2-a]pyridin-2(3H)-one]",268 to 269 °C
17,"Oc1nc2ccccn2c1Cc1ccc2ccccc2c1 [Compound 52, 2-hydroxy-3-(2-naphthylmethyl)imidazo[1,2-a]pyridine]",205 °C (dec.)
18,"O=C1N=C2C=CC=CN2C1(CCCc1ccccc1)CCCc1ccccc1 [Compound 26, 3,3-bis(3-phenyl-1-propyl)imidazo[1,2-a]pyridin-2(3H)-one]",227 to 228 °C
19,"O=C1N=C2C(Cl)=CC(Cl)=CN2C1(Cc1ccccc1)Cc1ccccc1 [Compound 13, 3,3-dibenzyl-6,8-dichloroimidazo[1,2-a]pyridin-2(3H)-one]",260 to 261 °C
20,"O=C1N=C2N=CC=CN2C12Cc1ccccc1C2 [Compound 63, spiro[imidazo[1,2-a]pyrimidin-2(3H)-one-3,2′-indan]]",195.5 °C (dec.)
21,"C=CCC1(CC=C)C(=O)N=C2C=CC=CN21 [Compound 24, 3,3-diallylimidazo[1,2-a]pyridin-2(3H)-one]",64 to 66 °C
22,"C/C=C/CC1(C/C=C/C)C(=O)N=C2N=CC=CN21 [Compound 55, 3,3-di(2-butenyl)imidazo[1,2-a]pyrimidin-2(3H)-one]",149.5 °C (dec.)
